Measurements: patent EP4463162B1, “CONNEXIN 43 FOR USE IN TREATING BRCA1/2-MUTATED CANCER” (Fundación Profesor Novoa Santos, priority 2022, dated 2023)

Key:
SNU251 cells = test: Proliferation assay (Cell Counting Kit-8); type: cell-based, human; details: Cx43-restored SNU251 vs EV, 100 and 200 µM olaparib, 96 h, beginning at 48 h
Experimental: Proliferation of tumour cell lines was evaluated using the Cell Counting Kit-8 (Dojindo Molecular Technologies). This kit comprises WST-8, a highly water-soluble tetrazolium salt, which upon reduction by cellular dehydrogenases of viable cells, gives rise to a yellow formazan dye that is solube in cell culture media and can be quantitated. Briefly, similar number of cells (1 000-5 000) were plated in 96-well plates (Corning) and left to grow for the desired time period under different treatment conditions. Then, medium was renewed (100 µL volume/well) and 10 µL of CCK-8 reagent were added to each well. Plates were incubated in the dark for 3 h at 37 °C, and absorbance was measured at 450 nm in a NanoQuant Infinite 200 plate reader (Tecan).
In order to complement previous results with another clinically relevant PARPi-treated cancer, assays were repeated with BRCA1 mutated ovarian cancer cell line SNU251, efficiently nucleofected with EV or Cx43-restituting plasmids (Figure 8). SNU251 wild type (EV) cells had no native Cx43 expression, as assayed by western blot ( Figure 8.A).
To further characterize its involvement in BRCA1/2 mutated cancer, Cx43 was restituted by plasmid transfection in BRCA1 mutated TNBC and ovarian carcinoma cell lines, HCC1937 and SNU251, respectively. […]

HCC1937 cells = test: Colony formation assay; type: cell-based, human; details: 100 µM olaparib, seven days, upon Cx43 restitution
Experimental: For assessing the clonogenic capacity of tumour cells lines, they were plated as single-cell suspensions (5 000-10 000 cells) in 6 or 12-well plates (Corning) and incubated for 6-7 days with media change every 48 h. After this time, they were washed with PBS, fixed with 4 % PFA for 15 min at room temperature and stained with 0.1 % crystal violet dye (Sigma-Aldrich) for 20 min at room temperature. They were then rinsed with PBS, air dried and photographed. The staining was dissolved with 30 % acetic acid for 10 min on a shaker. The eluent was then transferred to a 96-well plate and the absorbance, indicative of colony growth, measured at 570 nm using a NanoQuant microplate reader Infinite M200 (Tecan).
For small extracellular vesicle (sEV) isolation, sEV donor cells were grown in 175 cm^2 flasks (Thermo Fisher Scientific) until 85 % confluence. […] Donor cells final density was calculated, and supernatants derived from the same number of cells were ultracentrifuged at 100 000 x g for 90 min at 4 °C using a Hitachi Ultracentrifuge CP100NX with a P70AT rotor (Hitachi). […]
Cell viability measures were either relativized to untreated controls for each cell line, in order to account for the already reduced proliferation of Cx43-restituted cells (left graph) or reported as raw absorbance values (right graph). […]

O=C(c1cc(Cc2n[nH]c(=O)c3ccccc23)ccc1F)N1CCN(C(=O)C2CC2)CC1 [Olaparib, olaparib]
response to olaparib (proliferation) (SNU251 cells): significantly better response to olaparib than EV cells
cell viability (colony formation) (HCC1937 cells): profound decrease in HCC1937 cell viability
